Our source for the IC50 values is patent US20230167149A1, “CD33 LIGANDS SUITABLE FOR INCORPORATION INTO CARRIERS” (GLYCOMIMETICS, INC., priority 2020, published 2023).

In general, IC50 refers to the concentration at which inhibition is half-maximal.

The target in the experiment is T1, CD33 (Homo sapiens, UniProt P20138).
T1 construct: purchased BioLegend 750106
In words: CD33 competitive binding assay. The conditions noted are these: immobilized CD33-Fc; competition with Neu5Acα2-3Galβ1-3GalNAc-PAA-biotin; TMB readout at 450 nm. The procedure: The assay to screen for and characterize glycomimetic ligands of CD33 is a competitive binding assay, which allows the determination of IC50 values. CD33-Fc (BioLegend catalog item 750106) was immobilized in 96 well microtiter plates by incubation at 4° C. overnight. To reduce non-specific binding, bovine serum albumin was added to each well and incubated at room temperature for 2 hours. The plate was washed and serial dilutions of the test compounds were added to the wells in the presence of biotinylated polyacrylamide conjugated with Neu5Acα2-3Galβ1-3GalNAc-PAA-biotin (GlycoTech catalog item 01-088). After incubation at room temperature for 2 hours and washing, streptavidin/horseradish peroxidase was added to each well and incubated at room temperature for 30 minutes followed by an additional wash.
To determine the amount of glycopolymer bound to the immobilized CD33, the peroxidase substrate 3.3′.5.5′ tetramethylbenzidine (TMB) was added. After 5 minutes, the enzyme reaction was stopped by the addition of H3PO4 and the absorbance of light at a wavelength of 450 nm was determined. The concentration of test compound required to inhibit binding by 50% was determined and reported as the IC50 value.

T1 sequence (P20138 18-364): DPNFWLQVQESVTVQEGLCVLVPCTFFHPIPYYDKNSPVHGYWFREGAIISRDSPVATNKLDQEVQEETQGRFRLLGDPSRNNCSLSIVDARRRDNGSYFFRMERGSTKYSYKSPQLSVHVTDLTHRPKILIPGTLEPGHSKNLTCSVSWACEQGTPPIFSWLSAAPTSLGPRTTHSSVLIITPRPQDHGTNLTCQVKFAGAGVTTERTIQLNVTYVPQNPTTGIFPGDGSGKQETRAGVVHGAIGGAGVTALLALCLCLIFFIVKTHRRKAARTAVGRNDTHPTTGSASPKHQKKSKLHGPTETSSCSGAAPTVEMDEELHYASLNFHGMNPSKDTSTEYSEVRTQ

Regarding `CCCNC(=O)COC1C[C@](OCCCn2cc(-c3ccccc3)nn2)(C(=O)O)OC([C@H](O)[C@H](O)CNC(=O)c2cc(C)c(O)c(C)c2)[C@@H]1NC(=O)Cn1cc(C2CCCCC2)nn1` (stereo partly shown) [Compound 193], the half-maximal inhibitory concentration (IC50) amounted to 40 µM.
